Measured values taken from patent publication US7501430B2 (ArQule, Inc., priority 2006, dated 2009).
pIC50: −log10 of the molar value. Read-outs that look alike come from different tables or passages of the source.

Target: T1, mutant B-RAF (Homo sapiens, UniProt P15056, V600E)
T1 construct: purchased Upstate (Charlottesville, Va.)
Assay: RAF biochemical assay (MEK-1 phosphorylation, anti-phospho MEK1/2 detection)
Settings: for pIC50: read-out: Mutant B-RAF IC50; for inhibition at 10 µM: read-out: Mutant B-RAF % inhibition
Method in brief: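 Detection is by ELISA: after a 30 min room-temperature reaction, plate-captured GST-MEK-1 is probed with anti-phospho MEK1/2, then an AP-tagged secondary antibody with fluorescent Attophos read-out.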

T1 sequence (P15056 whole entry V600E): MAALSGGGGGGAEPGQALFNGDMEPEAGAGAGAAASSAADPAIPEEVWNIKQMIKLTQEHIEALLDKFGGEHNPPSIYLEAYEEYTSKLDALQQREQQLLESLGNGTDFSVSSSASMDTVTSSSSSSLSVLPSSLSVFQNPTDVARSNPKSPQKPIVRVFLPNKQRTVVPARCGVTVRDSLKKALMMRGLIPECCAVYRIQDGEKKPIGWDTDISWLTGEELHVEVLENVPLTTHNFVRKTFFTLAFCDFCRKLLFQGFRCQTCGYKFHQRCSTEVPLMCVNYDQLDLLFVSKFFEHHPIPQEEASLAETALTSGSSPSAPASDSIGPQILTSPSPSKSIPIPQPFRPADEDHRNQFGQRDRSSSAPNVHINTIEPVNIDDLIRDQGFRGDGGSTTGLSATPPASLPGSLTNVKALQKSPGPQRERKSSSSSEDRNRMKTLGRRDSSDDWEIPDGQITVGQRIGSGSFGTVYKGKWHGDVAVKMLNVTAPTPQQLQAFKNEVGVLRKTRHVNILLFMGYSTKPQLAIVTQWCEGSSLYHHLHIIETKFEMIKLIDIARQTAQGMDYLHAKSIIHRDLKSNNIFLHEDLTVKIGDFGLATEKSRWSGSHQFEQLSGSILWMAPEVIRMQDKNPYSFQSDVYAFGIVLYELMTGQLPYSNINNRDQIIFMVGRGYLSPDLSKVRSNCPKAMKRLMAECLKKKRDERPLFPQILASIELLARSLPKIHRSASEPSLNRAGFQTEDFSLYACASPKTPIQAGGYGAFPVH

SMILES | pIC50 | other results
O=S(=O)(c1ccc(Cl)cc1)N1CCC[C@@H](Nc2nccc(-c3c(-c4ccc(Cl)c(O)c4)nc4sccn34)n2)C1 [Example 101, 2-chloro-5-{5-[2-({(3R)-1-[(4-chlorophenyl)sulfonyl]piperidin-3-yl}amino)pyrimidin-4-yl]imidazo[2,1-b][1,3]thiazol-6-yl}phenol] | 7.96 | 
COc1ccccc1-c1nc2sccn2c1-c1ccnc(N[C@@H]2CCCNC2)n1 [Example 102, 4-[6-(2-methoxyphenyl)imidazo[2,1-b][1,3]thiazol-5-yl]-N-[(3R)-piperidin-3-yl]pyrimidin-2-amine] | 5.89 | 
COc1cccc(-c2nc3occn3c2-c2ccnc(N[C@@H]3CCCN(S(=O)(=O)c4ccc(Cl)cc4)C3)n2)c1 [Example 103, N-{(3R)-1-[(4-chlorophenyl)sulfonyl]piperidin-3-yl}-4-[6-(3-methoxyphenyl)imidazo[2,1-b][1,3]oxazol-5-yl]pyrimidin-2-amine] |  | inhibition at 10 µM (@ 10 uM): 48%
COc1ccc(-c2nc3sccn3c2-c2ccnc(N[C@@H]3CCCNC3)n2)cc1 [Example 106, 4-[6-(4-methoxyphenyl)imidazo[2,1-b][1,3]thiazol-5-yl]-N-[(3R)-piperidin-3-yl]pyrimidin-2-amine] |  | inhibition at 10 µM (@ 10 uM): 27%
O=S(=O)(c1ccc(Cl)cc1)N1CCC[C@@H](Nc2nccc(-c3c(-c4ccccc4O)nc4sccn34)n2)C1 [Example 107, 2-{5-[2-({(3R)-1-[(4-chlorophenyl)sulfonyl]piperidin-3-yl}amino)pyrimidin-4-yl]imidazo[2,1-b][1,3]thiazol-6-yl}phenol] | 7.48 | 
COc1cccc(-c2nc3sccn3c2-c2ccnc(N[C@@H]3CCCN(C(=O)c4ccc(F)cc4)C3)n2)c1 [Example 108, N-[(3R)-1-(4-fluorobenzoyl)piperidin-3-yl]-4-[6-(3-methoxyphenyl)imi-dazo[2,1-b][1,3]thiazol-5-yl]pyrimidin-2-amine] |  | inhibition at 10 µM: 73%
COc1cccc(-c2nc3sccn3c2-c2ccnc(N[C@@H]3CCCN(C(=O)CC(C)C)C3)n2)c1 [Example 109, 4-[6-(3-methoxyphenyl)imidazo[2,1-b][1,3]thiazol-5-yl]-N-[(3R)-1-(3-methylbutanoyl)piperidin-3-yl]pyrimidin-2-amine] | < 5.52 | 
O=S(=O)(c1ccc(Cl)cc1)N1CCC[C@@H](Nc2nccc(-c3c(-c4ccc(O)cc4)nc4sccn34)n2)C1 [Example 110, 4-{5-[2-({(3R)-1-[(4-chlorophenyl)sulfonyl]piperidin-3-yl}amino)pyrimidin-4-yl]imidazo[2,1-b][1,3]thiazol-6-yl}phenol] | < 5.30 | 
N#Cc1ccc(S(=O)(=O)N2CCC[C@@H](Nc3nccc(-c4c(-c5cccc(O)c5)nc5sccn45)n3)C2)cc1 [Example 111, 4-{[(3R)-3-({4-[6-(3-hydroxyphenyl)imidazo[2,1-b][1,3]thiazol-5-yl]pyrimidin-2-yl}amino)piperidin-1-yl]sulfonyl}benzonitrile] | 7.55 | 
O=C(c1ccc(F)cc1)N1CCC[C@@H](Nc2nccc(-c3c(-c4cccc(O)c4)nc4sccn34)n2)C1 [Example 113, 3-[5-(2-{[(3R)-1-(4-fluorobenzoyl)piperidin-3-yl]amino}pyrimidin-4-yl)imidazo[2,1-b][1,3]thiazol-6-yl}phenol] | 5.42 | 
O=S(=O)(c1ccc(Cl)cc1)N1CCC[C@@H](Nc2nccc(-c3c(-c4ccc(F)c(F)c4)nc4sccn34)n2)C1 [Example 114, N-{(3R)-1-[(4-chlorophenyl)sulfonyl]piperidin-3-yl}-4-[6-(3,4-difluorophenyl)imidazo[2,1-b][1,3]thiazol-5-yl]pyrimidin-2-amine] |  | inhibition at 3 µM (@ 3 uM): 48%
COc1cccc(-c2nc3occn3c2-c2ccnc(N[C@@H]3CCCNC3)n2)c1 [Example 115, 4-[6-(3-methoxyphenyl)imidazo[2,1-b][1,3]oxazol-5-yl]-N-[(3R)-piperidin-3-yl]pyrimidin-2-amine] | < 5.00 | 
CC(C)CC(=O)N1CCC[C@@H](Nc2nccc(-c3c(-c4cccc(O)c4)nc4sccn34)n2)C1 [Example 116, 3-[5-(2-{[(3R)-1-(3-methylbutanoyl)piperidin-3-yl]amino}pyrimidin-4-yl)imidazo[2,1-b][1,3]thiazol-6-yl]phenol] |  | inhibition at 10 µM (@ 10 uM): 52%
O=C(c1ccncc1)N1CCC[C@@H](Nc2nccc(-c3c(-c4cccc(O)c4)nc4sccn34)n2)C1 [Example 117, 3-[5-(2-{[(3R)-1-isonicotinoylpiperidin-3-yl]amino}pyrimidin-4-yl)imidazo[2,1-b][1,3]thiazol-6-yl]phenol] | 6.48 | 
COc1cccc(-c2nc3sccn3c2-c2ccnc(N[C@@H]3CCCN(S(=O)(=O)c4ccc(CCC(=O)O)cc4)C3)n2)c1 [Example 118, 3-(4-{[(3R)-3-({4-[6-(3-methoxyphenyl)imidazo[2,1-b][1,3]thiazol-5-yl]pyrimidin-2-yl}amino)piperidin-1-yl]sulfonyl}phenyl)propanoic acid] | 6.64 | 
COc1cccc(-c2nc3sccn3c2-c2ccnc(N[C@@H]3CCCN(S(=O)(=O)c4ccc(C(=O)O)cc4)C3)n2)c1 [Example 119, 4-{[(3R)-3-({4-[6-(3-methoxyphenyl)imidazo(2,1-b][1,3]thiazol-5-yl]pyrimidin-2-yl}amino)piperidin-1-yl]sulfonyl}benzoic acid] | 7.04 | 
O=[N+]([O-])c1cccc(-c2nc3sccn3c2-c2ccnc(N[C@@H]3CCCN(S(=O)(=O)c4ccc(Cl)cc4)C3)n2)c1 [Example 120, N-{(3R)-1-[(4-chlorophenyl)sulfonyl]piperidin-3-yl}-4-[6-(3-nitrophenyl)imidazo[2,1-b][1,3]thiazol-5-yl]pyrimidin-2-amine] |  | inhibition at 10 µM (@ 10 uM): 55%
Nc1cccc(-c2nc3sccn3c2-c2ccnc(N[C@@H]3CCCN(S(=O)(=O)c4ccc(Cl)cc4)C3)n2)c1 [Example 122, 4-[6-(3-aminophenyl)imidazo[2,1-b][1,3]thiazol-5-yl]-N-{(3R)-1-[(4-chlorophenyl)sulfonyl]piper-idin-3-yl}pyrimidin-2-amine] | 6.37 | 
CC(=O)Nc1cccc(-c2nc3sccn3c2-c2ccnc(N[C@@H]3CCCN(S(=O)(=O)c4ccc(Cl)cc4)C3)n2)c1 [Example 123, N-(3-{5-[2-({(3R)-1-[(4-chlorophenyl)sulfonyl]piperidin-3-yl}amino)pyrimidin-4-yl]imidazo[2,1-b][1,3]thiazol-6-yl}phenyl)acetamide] | 6.67 | 
NCC(=O)Nc1cccc(-c2nc3sccn3c2-c2ccnc(N[C@@H]3CCCN(S(=O)(=O)c4ccc(Cl)cc4)C3)n2)c1 [Example 124, N~1~-(3-{5-[2-({(3R)-1-[(4-chlorophenyl)sulfonyl]piperidin-3-yl}amino)pyrimidin-4-yl]imidazo[2,1-b][1,3]thiazol-6-yl}phenyl)glycinamide] | 5.53 | 
N#Cc1cccc(-c2nc3sccn3c2-c2ccnc(N[C@@H]3CCCNC3)n2)c1 [Example 125, 3-(5-{2-[(3R)-piperidin-3-ylamino]pyrimidin-4-yl}imidazo[2,1-b][1,3]thiazol-6-yl)benzonitrile] |  | inhibition at 10 µM (@ 10 uM): 19%
N#Cc1cccc(-c2nc3sccn3c2-c2ccnc(N[C@@H]3CCCN(S(=O)(=O)c4ccc(Cl)cc4)C3)n2)c1 [Example 126, 3-{5-[2-({(3R)-1-[(4-chlorophenyl)sulfonyl]piperidin-3-yl}amino)pyrimidin-4-yl]imidazo[2,1-b][1,3]thiazol-6-yl}benzonitrile] | 6.15 | 
O=C(O)c1ccc(-c2nc3sccn3c2-c2ccnc(N[C@@H]3CCCN(S(=O)(=O)c4ccc(Cl)cc4)C3)n2)cc1 [Example 127, 4-{5-[2-({(3R)-1-[(4-chlorophenyl)sulfonyl]piperidin-3-yl}amino)pyrimidin-4-yl]imidazo[2,1-b][1,3]thiazol-6-yl}benzoic acid] | < 5.52 | 
CCOC(=O)c1ccc(-c2nc3sccn3c2-c2ccnc(N[C@@H]3CCCNC3)n2)cc1OCC [Example 128, ethyl 2-ethoxy-4-(5-{2-[(3R)-piperidin-3-ylamino]pyrimidin-4-yl}imidazo[2,1-b][1,3]thiazol-6-yl)benzoate] |  | inhibition at 10 µM (@ 10 uM): 24%
N#Cc1cccc(-c2nc3sccn3c2-c2ccnc(N[C@@H]3CCCN(S(=O)(=O)c4ccc(C(=O)O)cc4)C3)n2)c1 [Example 129] | < 5.52 | 
CCOC(=O)c1ccc(-c2nc3sccn3c2-c2ccnc(N[C@@H]3CCCN(S(=O)(=O)c4ccc(Cl)cc4)C3)n2)cc1OCC [Example 130, ethyl 4-{5-[2-({(3R)-1-[(4-chlorophenyl)sulfonyl]piperidin-3-yl}amino)pyrimidin-4-yl]imidazo[2,1-b][1,3]thiazol-6-yl}-2-ethoxybenzoate] | 5.96 | 
O=[N+]([O-])c1ccccc1-c1nc2sccn2c1-c1ccnc(N[C@@H]2CCCN(S(=O)(=O)c3ccc(Cl)cc3)C2)n1 [Example 131, N-{(3R)-1-[(4-chlorophenyl)sulfonyl]piperidin-3-yl}-4-[6-(2-nitrophenyl)imidazo[2,1-b][1,3]thiazol-5-yl]pyrimidin-2-amine] | 7.60 | 
Nc1ccccc1-c1nc2sccn2c1-c1ccnc(N[C@@H]2CCCN(S(=O)(=O)c3ccc(Cl)cc3)C2)n1 [Example 132, 4-[6-(2-aminophenyl)imidazo[2,1-b][1,3]thiazol-5-yl]-N-{(3R)-1-[(4-chlorophenyl)sulfonyl]piper-idin-3-yl}pyrimidin-2-amine] | 6.35 | 
O=C(O)c1ccc(-c2nc3sccn3c2-c2ccnc(N[C@@H]3CCCN(S(=O)(=O)c4ccc(Cl)cc4)C3)n2)cc1O [Example 133, 4-{5-[2-({(3R)-1-[(4-chlorophenyl)sulfonyl]piperidin-3-yl}amino)pyrimidin-4-yl]imidazo[2,1-b][1,3]thiazol-6-yl}-2-hydroxybenzoic acid] | 6.08 | 
O=S(=O)(c1ccc(Cl)cc1)N1CCC[C@@H](Nc2nccc(-c3c(-c4ccc(O)c(O)c4)nc4sccn34)n2)C1 [Example 134, 4-{5-[2-({(3R)-1-[(4-chlorophenyl)sulfonyl]piperidin-3-yl}amino)pyrimidin-4-yl]imidazo[2,1-b][1,3]thiazol-6-yl}benzene-1,2-diol] | 7.62 | 
